Experimental data from patent US8394641B2, “Method of hydrolyzing an enzymatic substrate” (Advanced Liquid Logic Inc., priority 2009, dated 2013).

Experiment: 4-MU partitioning assay (forward and backward extraction) with cyclodextrins
Assay type: physicochemical
Details: for aqueous containment of 4-MU: independent of pH
Experimental: The assay format includes forward transfer partitioning (forward extraction; FE) of 4-MU from an aqueous phase to an oil phase and backward transfer partitioning (backward extraction; BE) of 4-MU from an oil phase to an aqueous phase. The assay is performed in 96-well microtiter substrates; clear 96-well substrates (e.g., Costar 3631) for evaluation of forward transfer partitioning with bottom probe fluorescence detection and solid black 96-well substrates (e.g., Costar 3915) for evaluation of backward transfer partitioning with top probe fluorescence detection. A BioTek Synergy HT instrument with 3 mm top probe and 5 mm bottom probe, may, for example, be used for fluorescence measurements. In one example, parameters that may be varied in the assay for evaluation of cyclodextrins in aqueous containment of 4-MU include, but are not limited to, ionic strength of the aqueous phase solution, pH of the aqueous phase solution (e.g., pH 2 or pH 5), and the molar ratio of cyclodextrins to 4-MU.
An example of an assay format used for testing the effect of cyclodextrins on contamination through 4-MU partitioning includes, but is not limited to, the following steps: Pipette an aliquot (20 μL) of an aqueous phase solution (e.g., at pH 2, pH5 or pH 10.5) containing a surfactant, such as 0.01% Tween® 20 in a well of a 96-well clear microtiter plate. […] Measure the fluorescence of each well using a bottom probe at gains 40, 45, and 50. […] Remove the aluminum foil and measure the fluorescence of each well using a top probe at gains 50, 60, 70, and 80. […]
Each well of the second microtiter plate (i.e., a solid black microtiter plate) contains 50 μL of an aqueous solution (200 mM NaHCO3) at pH 10.5. […] For fluorescence calibration, an aqueous solution containing 4-MU (0, 0.01, 0.1, or 1 μM) was added to the corresponding “empty” wells of Table 5 and overlaid with a 50 μL aliquot of fresh oil.
FIGS. 17A and 17B show data tables 1700 and 1750, respectively, of fluorescence readings for forward transfer and backward transfer, respectively, of the 4-MU partitioning assay of Tables 5 and 6. […]

hydroxypropyl-β-cyclodextrin
aqueous containment of 4-MU: effective

methyl-β-cyclodextrin
aqueous containment of 4-MU: effective | contamination signal (back extraction) (molar ratio of Me-bCD to 4-MU 200:1, FIG. 16D): lowest contamination signal
